{"source": "patent US11154593B2", "about": "“CNP prodrugs with large carrier moieties” (ASCENDIS PHARMA GROWTH DISORDERS A/S, priority 2016, dated 2021)", "key": {"recombinant human NEP": {"molecular_target": "recombinant human NEP (Homo sapiens, UniProt P08473)", "sequence (P08473 whole entry)": "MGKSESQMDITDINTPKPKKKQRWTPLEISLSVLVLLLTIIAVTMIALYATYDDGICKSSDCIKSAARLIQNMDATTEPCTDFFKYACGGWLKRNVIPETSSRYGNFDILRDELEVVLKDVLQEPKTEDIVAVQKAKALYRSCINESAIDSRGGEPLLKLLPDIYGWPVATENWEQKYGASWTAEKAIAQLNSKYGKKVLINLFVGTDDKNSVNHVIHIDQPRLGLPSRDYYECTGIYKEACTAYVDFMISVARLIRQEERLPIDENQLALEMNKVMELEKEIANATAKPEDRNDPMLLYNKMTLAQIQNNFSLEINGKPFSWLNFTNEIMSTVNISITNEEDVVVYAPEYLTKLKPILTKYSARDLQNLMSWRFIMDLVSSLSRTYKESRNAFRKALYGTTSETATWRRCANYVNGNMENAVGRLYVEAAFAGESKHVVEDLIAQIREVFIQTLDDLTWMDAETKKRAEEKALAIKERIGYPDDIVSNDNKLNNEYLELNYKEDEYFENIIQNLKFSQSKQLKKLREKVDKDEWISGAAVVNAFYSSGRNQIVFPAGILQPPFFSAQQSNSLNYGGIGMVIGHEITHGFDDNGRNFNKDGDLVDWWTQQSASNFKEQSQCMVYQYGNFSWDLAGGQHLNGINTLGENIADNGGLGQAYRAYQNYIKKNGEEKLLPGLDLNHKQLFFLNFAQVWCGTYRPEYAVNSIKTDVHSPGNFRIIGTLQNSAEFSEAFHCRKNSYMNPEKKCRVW", "test": "Digest of CNP variants by Neutral Endopeptidase in vitro (NEP digest assay)", "conditions": "pH 7.4", "quoted_text": "(§1) In order to determine the in vitro stability of various CNP variants including different peptide chain lengths and PEGylations using different PEGylation sites and PEG molecules in the presence of Neutral Endopeptidase (NEP), a NEP digest assay was established. This assay monitored the decrease of the non-digested CNP variant (normalized with the internal standard PFP) over time in reference to the t0-time point.\n(§2) In detail, recombinant human NEP (2.5 μg/mL final concentration) and the standard pentafluorophenol (PFP; 40 μg/mL final concentration) were added to the CNP variant (100 μg CNP equivalents/mL) in digest buffer (50 mM Tris-HCl, pH 7.4, 10 mM NaCl). The solution was incubated at 37° C. and 500 rpm for up to 4 days. Samples were taken at different time intervals. The reaction was stopped by a combined reduction and heat denaturation adding TCEP (tris(2-carboxyethyl)phosphine; 25 mM final concentration) and incubating the mixture at 95° C., 500 rpm for 5 minutes. The resulting reaction products were assigned using HPLC-MS. The half life of each CNP variant was calculated via the ratio change in the HPLC-UV peak areas of CNP and PFP over time."}, "NPR-B": {"molecular_target": "T1, NPR-B (Mus musculus, UniProt Q6VVW5)", "T1 construct": "These cells express endogenously NPR-B on the cell surface; endogenous in cells; host or cells: NIH-3T3 (murine embryo fibroblasts)", "T1 sequence (Q6VVW5 17-1047)": "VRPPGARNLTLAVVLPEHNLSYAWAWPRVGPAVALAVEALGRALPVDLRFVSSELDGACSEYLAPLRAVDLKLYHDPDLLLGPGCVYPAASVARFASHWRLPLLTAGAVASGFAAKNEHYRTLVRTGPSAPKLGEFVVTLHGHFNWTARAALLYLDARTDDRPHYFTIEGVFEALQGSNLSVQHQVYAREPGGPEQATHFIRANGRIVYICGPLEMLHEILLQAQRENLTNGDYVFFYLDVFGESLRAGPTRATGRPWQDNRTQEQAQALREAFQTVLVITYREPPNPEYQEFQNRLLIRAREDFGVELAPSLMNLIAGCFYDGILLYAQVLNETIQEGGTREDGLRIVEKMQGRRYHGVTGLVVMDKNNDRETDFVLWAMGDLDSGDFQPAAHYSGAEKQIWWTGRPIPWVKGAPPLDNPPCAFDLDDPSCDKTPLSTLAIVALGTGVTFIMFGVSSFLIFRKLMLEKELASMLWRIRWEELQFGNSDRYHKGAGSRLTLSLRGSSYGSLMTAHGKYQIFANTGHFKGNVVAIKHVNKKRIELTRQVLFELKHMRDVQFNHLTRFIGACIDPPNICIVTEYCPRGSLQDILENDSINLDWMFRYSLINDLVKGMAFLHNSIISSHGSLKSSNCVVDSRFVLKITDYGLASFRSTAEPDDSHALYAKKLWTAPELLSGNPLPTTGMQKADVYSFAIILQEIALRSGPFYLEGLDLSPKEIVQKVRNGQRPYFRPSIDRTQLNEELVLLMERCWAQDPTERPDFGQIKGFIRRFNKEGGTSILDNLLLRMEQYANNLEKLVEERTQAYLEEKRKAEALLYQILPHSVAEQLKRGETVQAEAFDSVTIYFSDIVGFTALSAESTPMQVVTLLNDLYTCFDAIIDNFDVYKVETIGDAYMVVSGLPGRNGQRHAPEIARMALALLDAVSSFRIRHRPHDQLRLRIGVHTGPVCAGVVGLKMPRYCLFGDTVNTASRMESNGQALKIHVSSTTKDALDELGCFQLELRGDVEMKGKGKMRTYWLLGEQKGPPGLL", "test": "Functional cGMP stimulation in NIH-3T3 cells with CNP variants", "assay_type": "cell-based, Murine", "conditions": "cGMP TR-FRET, 30 min, 37° C.", "experimental": "Functional activity of CNP variants were determined in a cell-based assay with NIH-3T3 cells (Murine Embryo Fibroblast cell line). These cells express endogenously NPR-B on the cell surface. Stimulation of NPR-B with CNP leads to intracellular production of the second messenger cGMP which is detected with a commercially available cGMP assay. NIH-3T3 cells were routinely cultured in DMEM F-12 medium with 5% FBS and 5 mM glutamine at 37° C. and 5% CO2. For each assay, 50,000 cells were resuspended in stimulation buffer (Dulbecco's PBS with IBMX) and incubated with the CNP variants in different concentrations. CNP (dilutions were made in PBS with 0.2% BSA). After incubation of 30 min at 37° C. and 5% CO2, the cells were lyzed and cGMP levels were determined with a commercially available cGMP TR-FRET assay (Cisbio, cGMP kit, Cat. No. 62GM2PEB). PEGylated CNP variants were always characterized in comparison with the non-PEGylated version in the same experiment batch. If possible, evaluation of the residual activity was done via the EC50- parameter of the resulting dose-response curve (restricted model with common slope).\nAfter 7 d, released CNP-38 was isolated by RP-HPLC and analyzed for bioactivity as described in Example 22."}, "NPR-C": {"molecular_target": "T2, NPR-C (Homo sapiens, UniProt P17342)", "T2 sequence (P17342 27-541)": "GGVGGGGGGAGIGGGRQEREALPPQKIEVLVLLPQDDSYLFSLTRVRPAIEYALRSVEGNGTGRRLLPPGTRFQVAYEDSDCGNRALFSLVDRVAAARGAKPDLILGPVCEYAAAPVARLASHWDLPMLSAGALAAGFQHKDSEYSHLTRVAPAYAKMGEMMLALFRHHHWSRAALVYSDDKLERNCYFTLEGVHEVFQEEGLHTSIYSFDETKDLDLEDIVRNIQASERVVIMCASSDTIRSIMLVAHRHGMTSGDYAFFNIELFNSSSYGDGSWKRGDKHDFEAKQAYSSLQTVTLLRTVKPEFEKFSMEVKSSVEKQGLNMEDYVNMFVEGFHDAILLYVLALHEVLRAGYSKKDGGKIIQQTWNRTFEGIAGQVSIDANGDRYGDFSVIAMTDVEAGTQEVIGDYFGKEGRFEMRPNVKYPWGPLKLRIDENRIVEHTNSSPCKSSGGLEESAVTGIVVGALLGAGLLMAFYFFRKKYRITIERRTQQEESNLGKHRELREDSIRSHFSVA", "test": "NPR-C affinity assay (competition with fluorescein-labelled CNP 27d, flow cytometry)", "conditions": "NPR-C expressing Hek293 cell line"}, "[1]": {"test": "Evaluation of cardiovascular effects in the conscious telemetered mouse (subcutaneous administration)", "assay_type": "in vivo", "conditions": "for MAP during the remaining ten time points versus vehicle / change in MAP at the 5, 15 and 30 min post dose time points compared to predose / MAP (mean ± SD): 800 μg CNP-38 (eq)/kg sc; for MAP during the remaining ten time points versus vehicle: 1 to 48 hours postdose; for change in MAP at the 5, 15 and 30 min post dose time points compared to predose: CNP-38: 3 of 4 animals", "experimental": "Male Crl:CDl(ICR) mice (age range 8-13 weeks and body weight range 27.3-35.6 g at start of dosing) were surgically implanted with a TA11PA-C10 telemetry transmitter (Data Sciences International (DSI)) in the carotid artery. The body of the transmitter was placed subcutaneously in the lateral flank of the mouse. The mice were dosed subcutaneously in a latin square crossover design with at least 72 hours between dosing occasions. […] At least four mice were included at each dose level. Blood pressure (systolic (SAP), diastolic (DAP) and mean (MAP) and heart rate (HR, derived from blood pressure), were recorded using a digital data capture system linked with a DSI™ Ponemah data acquisition and analysis system. The capture system allowed recording of the cardiovascular parameters whilst the mice were in individual cages. On the day of each test session the animals were weighed and a predose recording was performed for at least 60 min prior to dosing. Each mouse was returned to the home cage and the cardiovascular parameters were recorded for approximately 48 hours postdose. Blood pressure and HR were reported at the following time points: -30, -20, -10, 5, 15 and 30 min postdose and 1, 2, 6, 12, 18, 24, 30, 36, 42 and 48 hours postdose. Each time point was presented as the average value of five minute's recording prior to the time point. The monitoring period was selected to cover exposure to the test items both prior to and after Tmax."}, "[2]": {"test": "Pharmacokinetic profile of CNP-38 after subcutaneous single-dose administration to cynomolgus monkeys", "assay_type": "in vivo", "quoted_text": "Blood samples were collected at 5, 10, 15, 30, 45 min and 1, 2, 4, 8 hours upon dose.\nMethod: Plasma levels of CNP were analysed using a commercially available competitive radioimmuno-assay (RK-012-03, Phoenix Pharmaceuticals, CA). The assay was applied essentially as described by the manufacturer. The assay is based on competitive binding between 1251-labelled CNP (supplied in the kit) and unlabeled CNP (from study sample or calibrants) to an anti-CNP antibody. […] By measuring the amount of 1251-labelled CNP bound as a function of the concentration of peptide, it is possible to construct a calibration curve from which the concentration of peptide in the sample can be determined.\nA few changes to the supplied assay protocol were made. These changes included using in-house CNP calibrant and QC samples to secure consistency between assay runs. […] Due to matrix effects in monkey plasma, the minimal required dilution was set at 1:10, yielding an assay range of 150-1080 μg/mL CNP."}, "[3]": {"molecular_target": "Neutral Endopeptidase (NEP) (Homo sapiens, UniProt P08473)", "sequence (P08473 whole entry)": "as the sequence (P08473 whole entry) above", "test": "in vitro", "conditions": "pH 7.4", "quoted_text": "as §1, §2"}, "[4]": {"conditions": "doses up to 15 μg/kg, healthy volunteers; cited from earlier work"}, "[5]": {"conditions": "in vivo; cited from earlier work"}, "[6]": {"conditions": "male, cynomolgus monkey, in vivo, sc, 40 ug/kg"}}, "note": "Where two headings read alike, the source gives them in different places."}
{"compound": "Permanent N-Terminal CNP-38 PEG 5 kDa Conjugate [Conjugate 15e]", "values": [{"measurement": "half life norm. [h]", "setting": "recombinant human NEP", "value": "Almost no proteolysis"}, {"measurement": "EC50 compound/EC50 CNP-38 (residual NPR-B activity)", "setting": "NPR-B", "value": ">5"}, {"measurement": "IC50 of PEGylated CNP-38/IC50 CNP-38 (residual NPR-C affinity)", "setting": "NPR-C", "value": 0.53}]}
{"compound": "CC[C@H](C)[C@@H]1NC(=O)[C@H](CCCNC(=N)N)NC(=O)[C@H](CC(=O)O)NC(=O)[C@H](CC(C)C)NC(=O)[C@H](CCCCN)NC(=O)[C@H](CC(C)C)NC(=O)CNC(=O)[C@H](Cc2ccccc2)NC(=O)[C@@H](NC(=O)CNC(=O)[C@H](CCCCN)NC(=O)[C@H](CO)NC(=O)[C@H](CC(C)C)NC(=O)CNC(=O)[C@H](CCCCN)NC(=O)[C@H](CCCCN)NC(=O)[C@H](CC(N)=O)NC(=O)[C@H](C)NC(=O)CNC(=O)[C@H](CCCCN)NC(=O)[C@H](Cc2ccc(O)cc2)NC(=O)[C@H](CCCCN)NC(=O)[C@H](CCCNC(=N)N)NC(=O)[C@H](C)NC(=O)[C@H](CC(N)=O)NC(=O)[C@@H]2CCCN2C(=O)[C@H](Cc2c[nH]cn2)NC(=O)[C@H](CCC(=O)O)NC(=O)[C@H](CCC(N)=O)NC(=O)[C@@H](N)CC(C)C)CSSC[C@@H](C(=O)O)NC(=O)CNC(=O)[C@H](CC(C)C)NC(=O)CNC(=O)[C@H](CO)NC(=O)[C@H](CCSC)NC(=O)[C@H](CO)NC(=O)CNC1=O", "note": "[CNP-38, reference compound]", "values": [{"measurement": "MAP during the remaining ten time points versus vehicle", "setting": "[1]", "value": "no difference in MAP"}, {"measurement": "change in MAP at the 5, 15 and 30 min post dose time points compared to predose", "setting": "[1]", "value": "significant decrease in MAP"}, {"measurement": "MAP (mean ± SD)", "setting": "[1]; 5 min post dose", "value": "102.0 ± 7.5", "unit": "mmHg"}, {"measurement": "MAP (mean ± SD)", "setting": "[1]; 15 min post dose", "value": "89.5 ± 29.4", "unit": "mmHg"}, {"measurement": "MAP (mean ± SD)", "setting": "[1]; 30 min post dose", "value": "99.5 ± 25.2", "unit": "mmHg"}, {"measurement": "MAP (mean ± SD)", "setting": "[1]; predose", "value": "106.8 ± 13.4", "unit": "mmHg"}, {"measurement": "AUC(0-t)", "setting": "[2]; [6]", "value": 2.5, "unit": "ng·h/mL"}, {"measurement": "Cmax", "setting": "[2]; [6]", "value": 7.9, "unit": "ng/mL"}, {"measurement": "Tmax", "setting": "[2]; [6]", "value": 0.167, "unit": "h"}, {"measurement": "half-life", "setting": "[2]; male, cynomolgus monkey, in vivo, sc, 40 ug/kg, Half-life (mean)", "value": "~7", "unit": "min"}, {"measurement": "tolerability", "setting": "[2]; single s.c. 40 μg/kg", "value": "well tolerated"}, {"measurement": "half-life at 100 μg CNP equivalents/mL", "setting": "[3]", "value": 12.1, "unit": "h"}]}
{"compound": "BMN-111", "values": [{"measurement": "blood pressure effect", "setting": "[4]", "value": "mild hypotension"}, {"measurement": "half-life", "setting": "[5]", "value": 0.333, "unit": "h"}]}
{"compound": "Permanent N-Terminal CNP-34 PEG 5 kDa Conjugate [Conjugate 14e]", "values": [{"measurement": "half life norm. [h]", "setting": "recombinant human NEP", "value": "Almost no proteolysis"}]}
{"compound": "Permanent Lys22 CNP-34 PEG 5 kDa Conjugate [Conjugate 18e]", "values": [{"measurement": "half life norm.", "setting": "recombinant human NEP", "value": 38.87, "unit": "h"}]}
{"compound": "Permanent Lys16 CNP-34 PEG 5 kDa Conjugate [Conjugate 17e]", "values": [{"measurement": "half life norm.", "setting": "recombinant human NEP", "value": 54.23, "unit": "h"}]}
{"compound": "Permanent Lys26 CNP-38 PEG 5 kDa Conjugate [Conjugate 19e]", "values": [{"measurement": "half life norm.", "setting": "recombinant human NEP", "value": 62.76, "unit": "h"}, {"measurement": "EC50 compound/EC50 CNP-38 (residual NPR-B activity)", "setting": "NPR-B", "value": ">100"}, {"measurement": "IC50 of PEGylated CNP-38/IC50 CNP-38 (residual NPR-C affinity)", "setting": "NPR-C", "value": 1.1}]}
{"compound": "Permanent Lys26 CNP-38 PEG4×10 kDa Conjugate [Conjugate 12g]", "values": [{"measurement": "half life norm. [h]", "setting": "recombinant human NEP", "value": "Almost no proteolysis"}]}
{"compound": "Reversible Lys26 CNP-38 PEG4×10 kDa Conjugate [Conjugate 11i]", "values": [{"measurement": "MAP during the remaining ten time points versus vehicle", "setting": "[1]", "value": "no difference in MAP"}, {"measurement": "change in MAP at the 5, 15 and 30 min post dose time points compared to predose", "setting": "[1]", "value": "physiological increase in MAP"}, {"measurement": "MAP (mean ± SD)", "setting": "[1]; 5 min post dose", "value": "122.8 ± 5.9", "unit": "mmHg"}, {"measurement": "MAP (mean ± SD)", "setting": "[1]; 15 min post dose", "value": "121.5 ± 7.5", "unit": "mmHg"}, {"measurement": "MAP (mean ± SD)", "setting": "[1]; 30 min post dose", "value": "111.5 ± 13.7", "unit": "mmHg"}, {"measurement": "MAP (mean ± SD)", "setting": "[1]; predose", "value": "106.4 ± 10.7", "unit": "mmHg"}, {"measurement": "effect on blood pressure (conclusion)", "setting": "[1]; subcutaneous, dosage equivalent to CNP-38", "value": "did not decrease blood pressure"}]}
